Values after ≈ are worked out from the molar mass of the structure shown.
Experiments:
[1] = tested on: HIV; assay: inhibition of HIV-induced cytopathic effect in MT-4 cells (MTT method); assay type: cell-based; settings: for EC50: Human immunodeficiency virus 1, MT4, HIV-infected MT-4 cells, 1000 CCID50, 4 or 5 day incubation at 37° C., MTT method, read-out: ED50: Effective concentration for the inhibition of the proliferation of HIV by 50%; for S.I.: Selectivity index (CD50/ED50): ratio CD50/ED50, MT-4 cells
Procedure: The anti-HIV assays were based on the inhibition of the virus-induced cytopathic effect in MT-4 cells as described in J. Virol. Methods, 16, 171 (1987). Briefly, MT-4 cells were suspended in culture medium at 2.5×10^5 cells/ml and infected with 1000 CCID50 (50% cell culture infective dose) of HIV. Immediately, after virus infection, 100 μl of the cell suspension was brought into each well of a flat-bottomedmicrotiter tray containing various concentrations of the test compounds. After a 4 or 5 day incubation at 37° C., the number of viable cells was determined by the 3-(4,5-dimethylthiazol-2-yl)-2,5-diphenyltetrazoliumbromide (MTT) method, as disclosed in J. Virol. Methods, 20, 309 (1988).
ED50 : Effective concentration for the inhibition of the
proliferation of HIV by 50%

[2] = cytotoxicity: viability of mock-infected MT-4 host cells (MTT method); assay type: cell-based; settings: human, mt-4 cells, read-out: CD50: Cytotoxic concentration that causes death of cells by 50%
Procedure: The cytotoxicity of the compounds of the present invention was assessed in parallel with their antiviral activity. It was based on the viability of mock-infected host cells as determined by the MTT methods (se J. Virol. Methods, 20, 309 (1988)).
CD50 : Cytotoxic concentration that causes death of cells by 50%

| Compound | EC50 [1] [µg/mL] | S.I.: Selectivity index (CD50/ED50) [1] | CC50 [2] [µg/mL] |
| --- | --- | --- | --- |
| CCc1c(Sc2cc(C)cc(C)c2)n(CC#Cc2ccccc2)c(=O)[nH]c1=O [Example 26, 1-(3-phenyl-2-propynyl)-5-ethyl-6-(3,5-dimethylphenylthio)-2,4-pyrimidinedione] | < 0.009 | > 547 | 4.93 (≈ 12.6 µM) |
| Cc1cc(C)cc(C(=O)c2c(C(C)C)c(=O)[nH]c(=O)n2C/C=C/CCl)c1 [Example 9, 1-(4-chloro-trans-2-butenyl)-5-isopropyl-6-(3,5-dimethylbenzoyl)-2,4-pyrimidinedione] | < 0.009 | > 708 | 6.38 (≈ 17 µM) |
| C/C=C/Cn1c(Cc2cc(C)cc(C)c2)c(CC)c(=O)[nH]c1=O [Example 5, 1-(trans-2-butenyl)-5-ethyl-6-(3,5-dimethylbenzyl)-2,4-pyrimidinedione] | < 0.032 | > 1,518 | 48.6 (≈ 156 µM) |
| CCc1c(Oc2cc(C)cc(C)c2)n(C/C=C/c2ccccc2)c(=O)[nH]c1=O [Example 59, 1-(trans-cinnamyl)-5-ethyl-6-(3,5-dimethylphenoxy)-2,4-pyrimidinedione] | < 0.23 | > 167 | 38.6 (≈ 102 µM) |
| C=CCn1c(Oc2cc(C)cc(C)c2)c(CC)c(=O)[nH]c1=O [Example 57, 1-allyl-5-ethyl-6-(3,5-dimethylphenoxy)-2,4-pyrimidinedione] | < 0.32 | > 132 | 42.4 (≈ 141 µM) |
| CCc1c(C(=O)c2cc(C)cc(C)c2)n(C/C=C/CCl)c(=O)[nH]c1=O [Example 47] | < 0.009 | > 774 | 6.7 (≈ 18.6 µM) |
| CCc1c(Cc2ccccc2)n(C/C=C/c2ccccc2)c(=O)[nH]c1=O [Example 33] | < 0.032 | > 268 | 8.58 (≈ 24.8 µM) |
| CC#CCn1c(Cc2cc(C)cc(C)c2)c(CC)c(=O)[nH]c1=O [Example 39, 1-(2-butynyl)-5-ethyl-6-(3,5-dimethylbenzyl)-2,4-pyrimidinedione] | < 0.049 | > 176 | 8.65 (≈ 27.9 µM) |
| CCc1c(Sc2ccccc2)n(CC=C(C)C)c(=O)[nH]c1=O [Example 15, 1-(3-methyl-2-butenyl)-5-ethyl-6-phenylthio-2,4-pyrimidinedione] | 0.36 (≈ 1.14 µM) | 31 | 11.3 (≈ 35.6 µM) |
| CCc1c(Sc2cc(C)cc(C)c2)n(C/C=C/c2ccccc2)c(=O)[nH]c1=O [Example 20] | < 0.009 | > 578 | 5.21 (≈ 13.3 µM) |
| CC#CCn1c(C(=O)c2cc(C)cc(C)c2)c(C(C)C)c(=O)[nH]c1=O [Example 55, 1-(2-butynyl)-5-isopropyl-6-(3,5-dimethylbenzoyl)-2,4-pyrimidinedione] | < 0.32 | > 130 | 41.7 (≈ 123 µM) |
| C/C=C/Cn1c(C(=O)c2cc(C)cc(C)c2)c(CC)c(=O)[nH]c1=O [Example 44] | < 0.01 | > 3,439 | 34.4 (≈ 105 µM) |
| CCc1c(C(=O)c2cc(C)cc(C)c2)n(CC=CC(=O)OC(C)C)c(=O)[nH]c1=O [Example 73, 1-(isopropoxycarbonylallyl)-5-ethyl-6-(3,5-dimethylbenzoyl)-2,4-pyrimidinedione] | < 0.01 | > 485 | 4.85 (≈ 12.2 µM) |
| Cc1cc(C)cc(Oc2c(C(C)C)c(=O)[nH]c(=O)n2C/C=C/c2ccccc2)c1 [Example 65] | < 0.009 | > 893 | 8.04 (≈ 20.6 µM) |
| CCc1c(Sc2ccccc2)n(C/C=C/c2ccccc2)c(=O)[nH]c1=O [Example 14] | < 0.032 | > 180 | 5.77 (≈ 15.8 µM) |
| C=CCn1c(Cc2cc(C)cc(C)c2)c(CC)c(=O)[nH]c1=O [Example 34, 1-allyl-5-ethyl-6-(3,5-dimethylbenzyl)-2,4-pyrimidinedione] | < 0.32 | > 38 | 12.3 (≈ 41.3 µM) |
| C/C=C/Cn1c(Sc2ccccc2)c(CC)c(=O)[nH]c1=O [Example 13] | < 0.32 | > 50 | 16.2 (≈ 53.5 µM) |
| Cc1cc(C)cc(Sc2c(C(C)C)c(=O)[nH]c(=O)n2C/C=C/c2ccccc2)c1 [Example 29] | < 0.023 | > 1,615 | 37.1 (≈ 91.4 µM) |

| Compound | EC50 [1] [µg/mL] | S.I.: Selectivity index (CD50/ED50) [1] | CC50 [2] [µg/mL] |
| --- | --- | --- | --- |
| CC(=O)OC/C=C/Cn1c(C(=O)c2cc(C)cc(C)c2)c(C(C)C)c(=O)[nH]c1=O [Example 75, 1-(4-acetoxy-trans-2-butenyl)-5-isopropyl-6-(3,5-dimethylbenzoyl)-2,4-pyrimidinedione] | < 0.009 | > 6,487 | 58.4 (≈ 147 µM) |
| CCc1c(C(=O)c2cc(C)cc(C)c2)n(C/C=C/CN=[N+]=[N-])c(=O)[nH]c1=O [Example 79, 1-(4-azido-trans-2-butenyl)-5-ethyl-6-(3,5-dimethylbenzoyl)-2,4-pyrimidinedione] | < 0.009 | > 911 | 8.2 (≈ 22.3 µM) |
| CCc1c(C(=O)c2cc(C)cc(C)c2)n(CC=CC(=O)OC)c(=O)[nH]c1=O [Example 8, 1-(methoxycarbonylallyl)-5-ethyl-6-(3,5-dimethylbenzoyl)-2,4-pyrimidinedione] | < 0.19 | > 143 | 27.2 (≈ 73.5 µM) |
| CCc1c(C(=O)c2cc(C)cc(C)c2)n(C/C=C/c2ccccc2)c(=O)[nH]c1=O [Example 45, 1-(trans-cinnamyl)-5-ethyl-6-(3,5-dimethylbenzoyl)-2,4-pyrimidinedione] | < 0.009 | > 663 | 5.97 (≈ 15.4 µM) |
| C#CCn1c(C(=O)c2cc(C)cc(C)c2)c(CC)c(=O)[nH]c1=O [Example 48, 1-propargyl-5-ethyl-6-(3,5-dimethylbenzoyl)-2,4-pyrimidinedione] | < 0.39 | > 93 | 36.4 (≈ 117 µM) |
| CCc1c(Oc2cc(C)cc(C)c2)n(C/C=C/CO)c(=O)[nH]c1=O [Example 83, 1-(4-hydroxy-trans-2-butenyl)-5-ethyl-6-(3,5-dimethylphenoxy)-2,4-pyrimidinedione] | < 0.81 | > 31 | 25.5 (≈ 77.2 µM) |
| C=CCn1c(C(=O)c2cc(C)cc(C)c2)c(CC)c(=O)[nH]c1=O [Example 43, 1-allyl-5-ethyl-6-(3,5-dimethylbenzoyl)-2,4-pyrimidinedione] | < 0.17 | > 320 | 54.5 (≈ 175 µM) |
| C/C=C/Cn1c(Oc2cc(C)cc(C)c2)c(C(C)C)c(=O)[nH]c1=O [Example 64] | < 0.009 | > 1,098 | 9.89 (≈ 30.1 µM) |
| CCOC(=O)C=CCn1c(C(=O)c2cc(C)cc(C)c2)c(CC)c(=O)[nH]c1=O [Example 72, 1-(ethoxycarbonylallyl)-5-ethyl-6-(3,5-dimethylbenzoyl)-2,4-pyrimidinedion] | < 0.01 | > 685 | 6.85 (≈ 17.8 µM) |
| C#CCn1c(Sc2ccccc2)c(CC)c(=O)[nH]c1=O [Example 1, 1-propargyl-5-ethyl-6-phenylthio-2,4-pyrimidinedione] | < 0.32 | > 46 | 14.8 (≈ 51.9 µM) |
| C#CCn1c(Cc2cc(C)cc(C)c2)c(CC)c(=O)[nH]c1=O [Example 38, 1-propargyl-5-ethyl-6-(3,5-dimethylbenzyl)-2,4-pyrimidinedione] | < 0.32 | > 75 | 24.1 (≈ 81.5 µM) |
| Cc1cc(C)cc(C(=O)c2c(C(C)C)c(=O)[nH]c(=O)n2C/C=C/CN=[N+]=[N-])c1 [Example 74, 1-(4-azido-trans-2-butenyl)-5-isopropyl-6-(3,5-dimethylbenzoyl)-2,4-pyrimidinedione] | < 0.009 | > 954 | 8.59 (≈ 22.5 µM) |
| CCc1c(Sc2cc(C)cc(C)c2)n(C/C=C/CO)c(=O)[nH]c1=O [Example 78, 1-(4-hydroxy-trans-2-butenyl)-5-ethyl-6-(3,5-dimethylphenylthio)-2,4-pyrimidinedione] | < 0.97 | > 29 | 29 (≈ 83.6 µM) |
| CCc1c(Cc2cc(C)cc(C)c2)n(C/C=C/c2ccccc2)c(=O)[nH]c1=O [Example 35] | < 0.009 | 642 | 5.78 (≈ 15.4 µM) |
| CCc1c(C(=O)c2cc(C)cc(C)c2)n(C/C=C\c2ccccc2)c(=O)[nH]c1=O [Example 69, 1-(cis-cinnamyl)-5-ethyl-6-(3,5-dimethylbenzoyl)-2,4-pyrimidinedione] | < 0.032 | > 270 | 8.67 (≈ 22.3 µM) |
| COC(=O)/C=C/Cn1c(C(=O)c2cc(C)cc(C)c2)c(C(C)C)c(=O)[nH]c1=O [Example 54] | < 0.01 | > 3,005 | 30.1 (≈ 78.2 µM) |
| C/C=C\Cn1c(C(=O)c2cc(C)cc(C)c2)c(CC)c(=O)[nH]c1=O [Example 68, 1-(cis-2-butenyl)-5-ethyl-6-(3,5-dimethylbenzoyl)-2,4-pyrimidinedione] | < 0.032 | > 162 | 8.21 (≈ 25.2 µM) |

Reference: patent US5747500A, “Antiviral 2, 4-pyrimidinedione derivatives” (priority 1993, dated 1998)
